{
  "source": "patent US20240207308A1",
  "about": "“METHOD FOR CULTURING DENDRITIC CELLS” (NANOFAENTECH CO., LTD., priority 2021, published 2024)",
  "type_in_all_cases": "cell-based, mouse",
  "key": {"spleen dendritic cells": {"tested_on": "spleen dendritic cells", "experiment": "Distribution / clustering of cultured spleen dendritic cells by confocal microscope (DIC)", "details": "200 μg/mL added, dendritic cells 2×10^5/mL, cultured 6 hours", "protocol": "Mouse spleen dendritic cells were obtained by adding EDTA-BSS (Balanced Salt Solution) buffer and collagenase solution (DMEM containing 100 units of collagenase type IV, medium containing low glucose) to spleens of female C57BL/6 mice and cutting it with surgical scissors, mixing the same with 6 mL of collagenase treatment solution, and incubating the mixture for 30 minutes. The separated whole spleen tissue was filtered using a 70 μm cell strainer (Falcon), followed by centrifugation at 1800 rpm for 5 minutes thus to separate the cells. Red blood cells were removed by adding red blood cell lysis buffer (Sigma-Aldrich) to the cells and washed twice with RPMI-1640 medium containing 10% fetal bovine serum (FBS). Dendritic cells were reacted with CD11c^+ antibody-bound microbeads and isolated using CD11c Microbeads Ultrapure ([…] Biotec, USA). In FIG. 1, primary dendritic cells isolated from the spleen were dispensed in a 48-well plate and cultured for 24 hours in a cell chamber maintained at 37° C. and 5% CO2, and the extent of clustering in which cells were distributed or gathered into single cells was evaluated. […] The number of single cells and intercellular clusters was measured using ImageJ software (NIH, Bethesda). * indicates statistical significance as P<0.05 or less compared with 0 h. […]"}, "[1]": {"tested_on": "bone marrow-derived dendritic cells", "experiment": "ELISA of TNF-α and IL-12p40 from LPS-stimulated bone marrow-derived dendritic cells", "details": "BMDC, 24 hours, LPS 1 μg/mL", "protocol": "Mouse bone marrow-derived dendritic cells were obtained by differentiation from mouse bone marrow precursor cells. The femur and tibia of female C57BL/6 mouse were removed, and bone marrow was isolated using 10 mL of EDTA:BSS (Balanced Salt Solution) buffer containing 2% FBS. Red blood cells were removed with erythrocyte lysis buffer (Sigma-Aldrich), washed with EDTA:BSS buffer, followed by filtering cells using a 70 μm cell strainer (Falcon). Cells at 3×10^6/mL were dispensed in a 6-well plate, and interleukin-4 (20 ng/ml) (JW Creagene, Korea) and GM-CSF (20 ng/ml) (JW Creagene) were added and cultured for 7 days to induce differentiation. Differentiated dendritic cells were reacted with microbeads bound with CD11c antibody (eBioscience), was separated using CD11c Microbeads Ultrapure (MACS, Milteni Biotec), and then cultured.\nIn FIG. 19, when fibronectin was administered by concentration while culturing bone marrow-derived dendritic cells for 24 hours, it could be seen that the secretion of TNF-α and IL-12p40 by LPS (1 μg/mL) was inhibited from a concentration of 100 μg/mL. * indicates statistical significance as P<0.05 or less compared to 0 μg/mL concentration."}, "[2]": {"tested_on": "spleen T cells from Balb/c mice", "experiment": "Mixed lymphocyte reaction: proliferation of CFSE-stained allogeneic T cells co-cultured with spleen dendritic cells", "details": "dendritic cells cultured with the substance and activated with LPS or poly (I:C), co-culture 1:20, 4 days", "protocol": "Since the main role of activated dendritic cells is to induce antigen-specific T-cell activation and proliferation according to the stimulatory properties, it was investigated whether self-activated dendrite cells after culturing and dendritic cells activated with LPS after culturing with addition of peptides can induce T cell proliferation by mixed lymphocyte reaction (MLR) test. The spleen dendritic cells isolated from C57B/L6 mice were self-activated for 24 hours, otherwise, when cultured with addition of peptides or fibronectin, the cells were treated with LPS and activated. Spleen T cells from Balb/c mice were isolated using a CD4^+/CD8^+ T cell isolation kit (Miltenyi Biotec, Bergisch-Gladbach, Germany) and MACS column (Miltenyi Biotec), followed by 10 μM CFSE staining (Molecular Probes; Thermo Fisher Scientific Inc., USA). The activated dendritic cells and CFSE-stained T cells were co-cultured at a ratio of 1:20 for 4 days, and the T cell proliferation level was measured as a percentage of cells with decreased CFSE. […] In FIG. 22, the amount of cytokines secreted after co-culture of spleen dendritic cells and T cells for 4 days was measured by ELISA method. […]"}},
  "data": [
    {"substance": "fibronectin", "values": [
      {"measurement": "cell aggregation (distribution of cells)", "setting": "spleen dendritic cells", "value": "significantly reduced"},
      {"measurement": "concentration from which the secretion of TNF-α and IL-12p40 by LPS was inhibited", "setting": "[1]", "value": "≥ 100", "unit": "µg/mL"},
      {"measurement": "T cell proliferation (cells with decreased CFSE)", "setting": "[2]", "value": "not inducing T cell proliferation"}
    ]}
  ]
}
